Reference: paper PMC10272112 (Nature Communications, 2023)
Where two headings read alike, the source gives them in different places. One block for each compound: values may come before it.

What was measured:
[1] = biological target: HDAC2 (Homo sapiens, UniProt Q92769); assay: Chemoproteomic competition pulldown assay; assay type: binding; parameters: endogenous in cells; host or cells: SW620, MV4-11, A549 lysates
Procedure: (§1) To identify proteins directly bound by lipoic acid, we employed a chemoproteomic competition assay. Briefly, (R/S)-LA was immobilized on sepharose beads via an amidation reaction to form an affinity matrix (abbreviated as iL; Fig. 1a). This affinity matrix can be incubated with cell lysate to pull down potential LA or LM target proteins and identify these targets via bottom-up proteomics. In a competition assay, free LA or LM were incubated with lysate at different concentrations before pulling down and quantifying target proteins. […] (Fig. 1b, see “Methods” for details). […] The lysate buffer used in this assay contains 1 mM DTT to mimic the intracellular reductive milieu and to reduce lipoic acid and LM. […] Additional competition assays performed in lung adenocarcinoma cell A549 lysate also identified HDAC1, HDAC2, and HDAC6 as targets (Supplementary Fig. 1b). Amongst the three cell lines tested, HDACs were the only confidently identified targets across the 1500–3000 proteins quantified in these assays. […] We validated the results by analogous pulldown competition assays using two other affinity matrices prepared via the immobilization of either the HDAC inhibitor Quisinostat (iQ) and an analog of the class IIa HDAC inhibitor Bürli’s 31[14] (iC)[12]. We have previously shown that these affinity matrices specifically bind to the active sites of HDACs and have used them for HDACi selectivity profiling. Indeed, binding of (R/S)-LA and (R/S)-LM to HDAC1, HDAC2, HDAC3, HDAC6, and, to a lesser extent, HDAC8 was confirmed in these assays (Supplementary Fig. 1c, d). No binding to class IIa HDACs or the recently discovered common HDAC inhibitor off-target MBLAC2 was observed (Supplementary Fig. 1e)[12]. […] This observation might reflect electrostatic repulsion between the HDAC10 active site gate-keeper glutamic acid residues[15],[16] and the terminal carboxylic acid of LA.
(§2) To assess the degree of protein depletion from lysates by the affinity matrix, a second pulldown (PDPD) with fresh beads was performed using the unbound protein fraction from the vehicle control flow through. The beads were washed (1 × 1 mL of lysis buffer without inhibitors and only 0.4% Igepal, 2 × 2 mL of lysis buffer without inhibitors and only 0.2% Igepal), and captured proteins were denatured with 8 M urea buffer, alkylated with 55 mM chloroacetamide and digested with Trypsin according to standard procedures. The resulting peptides were desalted on a C18 filter plate (Sep-Pak® tC18 µElution Plate, Waters), vacuum dried, and stored at −20 °C until LC–MSMS measurement.
(§3) For the competition assays, relative binding was calculated based on the protein intensity ratio to the DMSO control for every single inhibitor concentration. EC50 values were derived from a four-parameter log-logistic regression with variable slope (constrain: bottom > 0). The obtained EC50 values were multiplied with a protein-dependent correction factor (cf), resulting in the apparent Kd value (Kd^app). The correction factor is determined by calculating the ratio of the protein intensity of two consecutive pulldowns of the vehicle control sample[13]. Targets of the inhibitors were annotated manually according to published procedures[12],[46],[47]. […] Additionally, the number of unique peptides and MSMS counts per condition were taken into account. Positive target binding across several independent experiments performed with different cell lysates further substantiated our confidence for a true positive drug-target binding event.

[2] = biological target: HDAC1 (Homo sapiens, UniProt Q13547); assay: Chemoproteomic competition pulldown assay; assay type: binding; parameters: endogenous in cells; host or cells: SW620, MV4-11, A549 lysates; details: for Kd: read-out: pKdapp (converted)
Procedure: as §1, §2, §3

[3] = iL, A549 lysate, log10 M -4.52288
[4] = iL, A549 lysate, log10 M -5.52288
[5] = iL, A549 lysate, log10 M -6.52288
[6] = iL, A549 lysate, log10 M -7.52288
[7] = iL, A549 lysate, log10 M -8.52288
[8] = iL, SW620, read-out: pKdapp (converted)
[9] = iL, SW620 lysate, log10 M -3.52288
[10] = iL, SW620 lysate, log10 M -4.52288
[11] = iL, SW620 lysate, log10 M -5.52288
[12] = iL, SW620 lysate, log10 M -6.52288
[13] = iQ, SW620, read-out: pKdapp (converted)
[14] = iQ, SW620 lysate, log10 M -3.52288
[15] = iQ, SW620 lysate, log10 M -4.52288
[16] = iQ, SW620 lysate, log10 M -5.52288
[17] = iQ, SW620 lysate, log10 M -6.52288
[18] = iL, MV4-11 lysate, log10 M -3.52288
[19] = iL, MV4-11 lysate, log10 M -4.52288
[20] = iL, MV4-11 lysate, log10 M -5.52288
[21] = iL, MV4-11 lysate, log10 M -6.52288

Chain of HDAC1 (Q13547 whole entry): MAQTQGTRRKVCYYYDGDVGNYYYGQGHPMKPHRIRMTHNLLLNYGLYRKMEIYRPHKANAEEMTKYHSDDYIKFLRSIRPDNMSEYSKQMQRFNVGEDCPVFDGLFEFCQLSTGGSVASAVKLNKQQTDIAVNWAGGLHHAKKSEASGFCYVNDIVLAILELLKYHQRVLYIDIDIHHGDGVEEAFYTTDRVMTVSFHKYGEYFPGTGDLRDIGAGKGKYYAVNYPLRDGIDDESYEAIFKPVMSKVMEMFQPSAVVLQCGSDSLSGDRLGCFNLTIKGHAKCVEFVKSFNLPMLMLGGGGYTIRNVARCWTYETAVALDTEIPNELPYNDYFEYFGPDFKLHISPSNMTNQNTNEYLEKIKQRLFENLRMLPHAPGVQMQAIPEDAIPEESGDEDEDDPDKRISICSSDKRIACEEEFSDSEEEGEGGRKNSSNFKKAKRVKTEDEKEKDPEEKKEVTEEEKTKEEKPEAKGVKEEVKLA
Chain of HDAC2 (Q92769 whole entry): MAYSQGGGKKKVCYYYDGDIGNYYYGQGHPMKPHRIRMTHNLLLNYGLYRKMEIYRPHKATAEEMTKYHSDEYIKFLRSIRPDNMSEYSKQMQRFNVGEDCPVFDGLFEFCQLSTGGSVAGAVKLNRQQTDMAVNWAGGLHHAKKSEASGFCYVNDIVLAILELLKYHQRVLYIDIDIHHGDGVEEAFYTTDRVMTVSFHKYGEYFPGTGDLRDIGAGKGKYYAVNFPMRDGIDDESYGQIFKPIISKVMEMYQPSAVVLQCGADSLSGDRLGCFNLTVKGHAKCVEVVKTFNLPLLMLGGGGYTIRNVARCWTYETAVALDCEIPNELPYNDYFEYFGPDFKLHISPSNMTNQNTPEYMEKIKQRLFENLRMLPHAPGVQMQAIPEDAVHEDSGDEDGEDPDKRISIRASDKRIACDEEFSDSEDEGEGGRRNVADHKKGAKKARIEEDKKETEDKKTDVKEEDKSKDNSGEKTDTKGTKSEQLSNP

Structure (SMILES): O=C(O)CCCCC1CCSS1 (racemic) [(R/S)-LA, (R/S)-lipoic acid]
- Kd ([1]; iL, A549, read-out: pKdapp (converted)): 1 µM
- relative binding vs DMSO ([1]; iL, A549 lysate, log10 M -4): 0.3867
- relative binding vs DMSO [1, 3]: 0.2342
- relative binding vs DMSO ([1]; iL, A549 lysate, log10 M -5): 0.3145
- relative binding vs DMSO [1, 4]: 0.7222
- relative binding vs DMSO ([1]; iL, A549 lysate, log10 M -6): 0.7592
- relative binding vs DMSO [1, 5]: 1.015
- relative binding vs DMSO [1, 6]: 1.14
- relative binding vs DMSO ([1]; iL, A549 lysate, log10 M -8): 1.179
- relative binding vs DMSO [1, 7]: 1.15
- Kd [1, 8]: 6.31 µM
- relative binding vs DMSO [1, 9]: 0.08452
- relative binding vs DMSO ([1]; iL, SW620 lysate, log10 M -4): 0.1723
- relative binding vs DMSO [1, 10]: 0.723
- relative binding vs DMSO ([1]; iL, SW620 lysate, log10 M -5): 1.4202
- relative binding vs DMSO [1, 11]: 0.8654
- relative binding vs DMSO ([1]; iL, SW620 lysate, log10 M -6): 1.086
- relative binding vs DMSO [1, 12]: 0.8422
- relative binding vs DMSO ([1]; iL, SW620 lysate, log10 M -7): 1.138
- Kd [1, 13]: 31.6 µM
- relative binding vs DMSO [1, 14]: 0.2247
- relative binding vs DMSO ([1]; iQ, SW620 lysate, log10 M -4): 0.2743
- relative binding vs DMSO [1, 15]: 0.6023
- relative binding vs DMSO ([1]; iQ, SW620 lysate, log10 M -5): 0.7491
- relative binding vs DMSO [1, 16]: 0.82
- relative binding vs DMSO ([1]; iQ, SW620 lysate, log10 M -6): 0.8431
- relative binding vs DMSO [1, 17]: 0.9314
- relative binding vs DMSO ([1]; iQ, SW620 lysate, log10 M -7): 0.8052
- Kd ([2]; iL, A549): 1 µM
- relative binding vs DMSO ([2]; iL, A549 lysate, log10 M -4): 0.3621
- relative binding vs DMSO [2, 3]: 0.1828
- relative binding vs DMSO ([2]; iL, A549 lysate, log10 M -5): 0.2687
- relative binding vs DMSO [2, 4]: 0.5244
- relative binding vs DMSO ([2]; iL, A549 lysate, log10 M -6): 0.7392
- relative binding vs DMSO [2, 5]: 0.8303
- relative binding vs DMSO [2, 6]: 1.235
- relative binding vs DMSO ([2]; iL, A549 lysate, log10 M -8): 1.138
- relative binding vs DMSO [2, 7]: 1.054
- Kd ([2]; iL, SW620): 7.94 µM
- relative binding vs DMSO [2, 9]: 0.1153
- relative binding vs DMSO ([2]; iL, SW620 lysate, log10 M -4): 0.1408
- relative binding vs DMSO [2, 10]: 0.5904
- relative binding vs DMSO ([2]; iL, SW620 lysate, log10 M -5): 0.9976
- relative binding vs DMSO [2, 11]: 0.8296
- relative binding vs DMSO ([2]; iL, SW620 lysate, log10 M -6): 0.9942
- relative binding vs DMSO [2, 12]: 0.9252
- relative binding vs DMSO ([2]; iL, SW620 lysate, log10 M -7): 1.135
- Kd ([2]; iQ, SW620): 25.1 µM
- relative binding vs DMSO [2, 14]: 0.2247
- relative binding vs DMSO ([2]; iQ, SW620 lysate, log10 M -4): 0.2525
- relative binding vs DMSO [2, 15]: 0.6007
- relative binding vs DMSO ([2]; iQ, SW620 lysate, log10 M -5): 0.7446
- relative binding vs DMSO [2, 16]: 0.8354
- relative binding vs DMSO ([2]; iQ, SW620 lysate, log10 M -6): 0.8396
- relative binding vs DMSO [2, 17]: 0.9165
- relative binding vs DMSO ([2]; iQ, SW620 lysate, log10 M -7): 0.8126

- relative binding vs DMSO [1, 18]: 0.0982
- relative binding vs DMSO ([1]; iL, MV4-11 lysate, log10 M -4): 0.1933
- relative binding vs DMSO [1, 19]: 0.3304
- relative binding vs DMSO ([1]; iL, MV4-11 lysate, log10 M -5): 0.6612
- relative binding vs DMSO [1, 20]: 0.6399
- relative binding vs DMSO ([1]; iL, MV4-11 lysate, log10 M -6): 0.7735
- relative binding vs DMSO [1, 21]: 0.8518
- relative binding vs DMSO ([1]; iL, MV4-11 lysate, log10 M -7): 0.9297
- Kd ([1]; iL, MV4-11 lysate, read-out: Kd app): 14 µM
- Kd ([1]; iL, MV411, read-out: pKdapp (converted)): 10 µM
- Kd [1, 8]: 20 µM
- Kd [1, 13]: 20 µM
- relative binding vs DMSO [1, 14]: 0.1341
- relative binding vs DMSO ([1]; iQ, SW620 lysate, log10 M -4): 0.2239
- relative binding vs DMSO [1, 15]: 0.5192
- relative binding vs DMSO ([1]; iQ, SW620 lysate, log10 M -5): 0.7829
- relative binding vs DMSO [1, 16]: 0.822
- relative binding vs DMSO ([1]; iQ, SW620 lysate, log10 M -6): 0.953
- relative binding vs DMSO [1, 17]: 0.8561
- relative binding vs DMSO ([1]; iQ, SW620 lysate, log10 M -7): 0.9474
- relative binding vs DMSO [2, 18]: 0.1265
- relative binding vs DMSO ([2]; iL, MV4-11 lysate, log10 M -4): 0.2225
- relative binding vs DMSO [2, 19]: 0.3978
- relative binding vs DMSO ([2]; iL, MV4-11 lysate, log10 M -5): 0.749
- relative binding vs DMSO [2, 20]: 0.6057
- relative binding vs DMSO ([2]; iL, MV4-11 lysate, log10 M -6): 0.6823
- relative binding vs DMSO [2, 21]: 0.771
- relative binding vs DMSO ([2]; iL, MV4-11 lysate, log10 M -7): 0.9295
- Kd ([2]; iL, MV411): 10 µM
- Kd ([2]; iL, SW620): 12.6 µM
- Kd ([2]; iQ, SW620): 20 µM
- relative binding vs DMSO [2, 14]: 0.1684
- relative binding vs DMSO ([2]; iQ, SW620 lysate, log10 M -4): 0.2856
- relative binding vs DMSO [2, 15]: 0.6671
- relative binding vs DMSO ([2]; iQ, SW620 lysate, log10 M -5): 1.011
- relative binding vs DMSO [2, 16]: 0.8661
- relative binding vs DMSO ([2]; iQ, SW620 lysate, log10 M -6): 1.096
- relative binding vs DMSO [2, 17]: 1.037
- relative binding vs DMSO ([2]; iQ, SW620 lysate, log10 M -7): 1.154
Structure (SMILES): NC(=O)CCCCC1CCSS1 (racemic) [(R/S)-LM, (R/S)-lipoamide]
